According to patent publication US20090269770A1, “METHODS FOR EVALUATION PROGNOSIS AND FOLLOW-UP OF DRUG TREATMENT OF PSYCHIATRIC DISEASES OR DISORDERS” (priority 2008, published 2009):
Values joined by “and” are separate entries in the source; they are usually repeats but may differ in a detail not shown here. Equal entries are not always repeated. “Also recorded” adds a separate entry of the source.

Test system: PMC from schizophrenic patients
Assay: GPCR cDNA array (GEArray Q series) of PMC gene expression, fluvoxamine augmentation
Format: in vivo, human
Design: key to Gene expression change CCR5 (X91492), divided by week 0 / Gene expression change CCR7 (L31581), divided by week 0 / Gene expression change CCRL1 (AF110640), divided by week 0 / Gene expression change CRL1 (U79527), divided by week 0 / Gene expression change IL8Rα (L19591), divided by week 0 / Gene expression change RGS7 (BC022009), divided by week 0 / Gene expression change 5-HT2A (X57830), divided by week 0 / Gene expression change 5-HT7 (L21195), divided by week 0 / Gene expression change CCR1 (D10925), divided by week 0: D—down regulation (<0.7); U—up regulation (>1.3); nc—No change; nd—Not detected
Details: for Gene expression change 5-HT2A (X57830), divided by week 0 / Gene expression change 5-HT7 (L21195), divided by week 0 / Gene expression change CCR1 (D10925), divided by week 0 / Gene expression change CCR5 (X91492), divided by week 0 / Gene expression change CCR7 (L31581), divided by week 0 / Gene expression change CCRL1 (AF110640), divided by week 0 / Gene expression change CRL1 (U79527), divided by week 0 / Gene expression change IL8Rα (L19591), divided by week 0 / Gene expression change RGS7 (BC022009), divided by week 0: PMC, one cell per patient I-VI
Protocol: Patients suffering from chronic schizophrenia (DSM IV criteria) with at least 2 years of illness (range 2-17 years) and persistent negative symptoms were chosen from an Israeli mental health center, as shown in Table 1. To qualify for inclusion in the study, these patients were required to be on constant antipsychotic medication for at least 6 months prior to the study and on an unchanged dose for at least 4 weeks before entry.
Fluvoxamine (100 mg/day) was added in an open study format to the antipsychotic treatment, which remained steady. Clinical state was assessed by psychiatrists using validated rating scales for negative (SANS) and positive (SAPS) symptoms (Silver et al., 2003) prior to fluvoxamine treatment and then weekly until the end of the trial period. Total SANS scores and summary scores for […] blunting, alogia, anhedonia and […] factors were the outcome measures. Extrapyramidal symptoms were assessed with the Simpson-Angus Scale (SAS) for extrapyramidal side effects (Simpson and Angus, 1970). Blood samples were taken at baseline (day 0), before addition of fluvoxamine, after 3 weeks of combined treatment, a time when the initial clinical effect is expected to be seen (Silver et al., 2003), and after 6 weeks of the combined treatment.
Blood samples (40 ml) from patients were collected in EDTA-coated tubes in order to prevent coagulation, and transported in ice to the laboratory for further processing. Each 15 ml of blood was completed to 40 ml with phosphate buffered saline (PBS) and gently mixed. PMC were isolated according to Ficoll protocol (Sigma, USA). In short, after addition of Ficoll reagent, the tubes were centrifuged (400 g, 30 min), and the interphase was transferred to a new tube, mixed with 100 ml PBS and centrifuged (400 g, 10 min). The supernatant was discarded and the pellet containing the PMC was washed 3 times with PBS (400 g, 10 min). TriReagent (Sigma, USA) was added to the pellet and left on ice for 15 min.
[…] chloroform was added to 1 ml of sample in TriReagent and the suspension was centrifuged (12,000 g, 20 min, 4° C.). After precipitation with isopropanol, the RNA pellet was washed twice with 70% ethanol (7,500 g, 10 min), followed by one wash with 96% ethanol (12,000 g, 10 min) and resuspended in diethylpyrocarbonate (DEPC)-treated water. RNA sample concentrations were determined by UV spectrophotometry at 260 nm (average OD260/2801.9-2). RNA purity was determined by the 260/230 and 260/280 ratios. RNA integrity was confirmed using gel (1.2% agarose) electrophoresis by direct visualization of 18S and 28S rRNA bands and densitometric analysis.
In the next step, gene expression profiles were examined with GEArray™ cDNA membranes, consisting of genes related to G protein-coupled receptor (GPCR) pathways (Q series human G protein-coupled receptor gene array II, SuperArray, Bethesda, Md., USA). Each membrane consists of 100 human cDNAs fragments associated with GPCR family, including receptors for dopamine (DA), serotonin (5-HT), acetylcholine and epinephrine; receptors for chemokines; GPCR kinases; Mitogen activated protein kinases; and regulators of G-protein signaling (RGS). Hybridization array analysis was performed according to the manufacturer's (SuperArray, Bethesda, Md.) protocol. Total RNA from each patient was reverse transcribed with biotinylated dUTP (Roche Diagnostics, Mannheim, Germany) and a gene specific primer mix (SuperArray, Bethesda, Md.). The probes were hybridized to the membrane and the array image was recorded using X-ray film. Quantitation of the results and analysis was accomplished using the manufacturer Software Package (SuperArray, Bethesda, Md.). The row values from 4 spotted replicates of a gene were averaged, normalized to the median of all intensity values on array and compared to control values, thereby assessing the relative expression level of a given mRNA. […]

[1] = after 3 weeks or more of the combined treatment
[2] = in at least 4 out of the 6 subjects after 3 weeks or more of the combined treatment

**Q.** What does the source list for `COCCCC/C(=N\OCCN)c1ccc(C(F)(F)F)cc1` [fluvoxamine]?
**A.** expression level of CCR5 [1]: increase; transcript encoding 5-HR7 [1]: reduced expression level; transcript encoding 5-HT2A [1]: reduced expression level; transcript encoding RGS7 [1]: reduced expression level; expression level of CCR1 [2]: decrease; expression level of CCRL1 [2]: decrease; expression level of CMKLR1 [2]: decrease; expression level of IL8Rα [2]: decrease; Gene expression change 5-HT2A (X57830), divided by week 0 (week 3): D (D—down regulation (<0.7)) (4×) and nc; Gene expression change 5-HT7 (L21195), divided by week 0 (week 3): D (D—down regulation (<0.7)) (4×) and nc; Gene expression change CCR1 (D10925), divided by week 0 (week 3): D (D—down regulation (<0.7)) (3×) and nc; Gene expression change CCR5 (X91492), divided by week 0 (week 3): U (U—up regulation (>1.3)); Gene expression change CCR7 (L31581), divided by week 0 (week 3): nc (2×) and D (D—down regulation (<0.7)) (3×) and U (U—up regulation (>1.3)); Gene expression change CCRL1 (AF110640), divided by week 0 (week 3): nc (3×) and D (D—down regulation (<0.7)) (3×); Gene expression change CRL1 (U79527), divided by week 0 (week 3): D (D—down regulation (<0.7)) (4×) and nc (2×); Gene expression change IL8Rα (L19591), divided by week 0 (week 3): D (D—down regulation (<0.7)) (3×) and nc and U (U—up regulation (>1.3)) (2×); Gene expression change RGS7 (BC022009), divided by week 0 (week 3): D (D—down regulation (<0.7)) (2×) and nc (3×) and U (U—up regulation (>1.3)); Gene expression change 5-HT2A (X57830), divided by week 0 (week 6): nc and D (D—down regulation (<0.7)) (4×); Gene expression change 5-HT7 (L21195), divided by week 0 (week 6): D (D—down regulation (<0.7)) (4×) and nc; Gene expression change CCR1 (D10925), divided by week 0 (week 6): D (D—down regulation (<0.7)); also recorded: U (U—up regulation (>1.3)); Gene expression change CCR5 (X91492), divided by week 0 (week 6): U (U—up regulation (>1.3)) and nc (2×) and D (D—down regulation (<0.7)); Gene expression change CCR7 (L31581), divided by week 0 (week 6): U (U—up regulation (>1.3)) (3×) and nc (2×) and D (D—down regulation (<0.7)); Gene expression change CCRL1 (AF110640), divided by week 0 (week 6): U (U—up regulation (>1.3)) (2×) and nc (2×) and D (D—down regulation (<0.7)) (2×); Gene expression change CRL1 (U79527), divided by week 0 (week 6): D (D—down regulation (<0.7)) (4×) and nc and U (U—up regulation (>1.3)); Gene expression change IL8Rα (L19591), divided by week 0 (week 6): D (D—down regulation (<0.7)) (4×) and U (U—up regulation (>1.3)) and nc; Gene expression change RGS7 (BC022009), divided by week 0 (week 6): D (D—down regulation (<0.7)) (4×) and nc (2×); expression level of CCR7 (week 6 compared with week 3): increased; expression level of CCRL1 (week 6 compared with week 3): increased
